The values that follow come from US20120214710A1, “METHOD OF PREDICTING RESPONSE TO THALIDOMIDE IN MULTIPLE MYELOMA PATIENTS” (Dublin City University, priority 2009, published 2012).

One data set has as its system Multiple Myeloma. The data set is described as follows: Day-100 re-staging (IMWG uniform response criteria) of newly diagnosed MM patients on thalidomide-based regimens. In kind it is in vivo, human. On the procedure:
Serum samples from 51 consecutive newly diagnosed MM patients who were having initial treatment with thalidomide-based regimens were analyzed. Samples were obtained at diagnosis and prior to commencement of therapy. The samples were collected according to standard phlebotomy procedures from consented patients. Ethical consent was granted from the Mater Misericordiae University Hospital, Dublin, Ireland ethics committee. 10 ml of blood sample was collected into additive free blood tubes and was allowed to clot for 30 minutes to 1 hour at room temperature. Samples were coded and transported on ice to the laboratory. The serum was denuded by pipette from the clot and place into a clean tube. The tubes were centrifuged at 400 relative centrifugal force (rcf) for 30 minutes at 4° C. Serum was aliquoted in the cryovial tubes, labeled and stored at −80° C. until time of analysis. The time from sample procurement to storage at −80° C. was less than 3 hours. Each serum sample underwent no more than 3 freeze/thaw cycles prior to analysis.
The mean age of the patient group was 68 SD+/−6.95 years (range 52-81 years); 27 were male and 24 female. Based on Day-100 re-staging investigations and using the International Myeloma Working Group (IMWG) uniform response criteria (Rajkumar S V, Buadi F. Multiple myeloma: new staging systems for diagnosis, prognosis and response evaluation. Best Pract Res Clin Haematol. 2007; 20:665-680; Durie B G, Harousseau J L, Miguel J S, et al. International uniform response criteria for multiple myeloma. Leukemia. 2006;20:1467-1473) for MM, 29 responders and 22 non-responders to thalidomide-based therapy were identified. The mean age was 66 SD+/−6.80 years (range, 52-81 years) for responders and 70 SD+/−6.69 years (range, 57-79 years) for non-responders. Based on the ISS classification (Hotta T. [Classification, staging and prognostic indices for multiple myeloma]. Nippon Rinsho. 2007; 65:2161-2166), 6 responding patients had stage I, 15 had stage II and 8 had stage III disease. […] had stage I, 11 had stage II and 9 had stage III disease. In the responders group, 24 patients were treated with thalidomide and dexamethasone (TD), 3 with thalidomide, cyclophosphamide and dexamethasone (CTD) and 2 with melphalan, prednisone and thalidomide (MPT). In the non-responder group, 17 patients received TD, 4 received CTD and 1 patient received MPT. Median follow-up was 13 months (range, 6-21 months). In the responder group, 9 patients achieved complete response (CR) and 20 achieved very good partial response (VGPR). Five non-responders had Stable disease (SD) and the remaining 17 had Progressive disease (PD) (Table I).

For data set [1] the following is noted: use in myeloma; cited from earlier work.
[2] abbreviates: 51 newly diagnosed MM patients, Day-100 re-staging, IMWG criteria.

For `O=C1CCC(N2C(=O)c3ccccc3C2=O)C(=O)N1` (stereo not drawn) [thalidomide, 2-(2,6-dioxopiperidin-3-yl)-1H-isoindole-1,3(2H)-dione], in the data set on Multiple Myeloma (setting [2]), the “number of non-responders (SD or PD)” value is recorded as 22 patients and the “number of responders (CR or VGPR)” value stood at 29 patients. The “patients with Progressive disease (PD)” value with Multiple Myeloma (non-responder group, n=22) was 17 patients. In the data set on Multiple Myeloma (responder group, n=29), the “patients achieving complete response (CR)” value worked out at 9 patients and the “patients achieving very good partial response (VGPR)” value is listed as 20 patients. Moreover, the serious side effects result in data set [1] was “thrombo-embolic disease and peripheral neuropathy”.
